Measurements as given in article PMC6931042 (Bioorganic chemistry, 2018).
Values joined by “and” are separate entries in the source; they are usually repeats but may differ in a detail not shown here. Equal values may be shown once. Read-outs that look alike come from different tables or passages of the source. Values belong to the compound of their own block, whether it stands above or below them.

Columns and labels:
HCT-15 = assay: NCI in vitro five dose anticancer assay; assay type: cell-based, human
EKVX = assay: NCI in vitro five dose anticancer assay; assay type: cell-based, human
ACHN = assay: NCI in vitro five dose anticancer assay; assay type: cell-based, human
[1] = test system: p-PI3K, p-Akt, p-mTOR and p-GSK-3β in K-562 cells; assay: Western blotting, PI3K/Akt/mTOR pathway; assay type: cell-based, human; conditions: 1, 3, or 6 μM, western blot, dose-dependent
SK-OV-3 = assay: NCI in vitro five dose anticancer assay; assay type: cell-based, human
U251 = assay: NCI in vitro five dose anticancer assay; assay type: cell-based, human
NCI-H23 = assay: NCI in vitro five dose anticancer assay; assay type: cell-based, human
HT29 = assay: NCI in vitro five dose anticancer assay; assay type: cell-based, human
SK-MEL-2 = assay: NCI in vitro five dose anticancer assay; assay type: cell-based, human
NCI 60 cell lines = assay: NCI single dose; assay type: cell-based, human; conditions: 48 h
K-562 = assay: NCI in vitro five dose anticancer assay; assay type: cell-based, human
PI3K-α = PI3K-α (Homo sapiens, UniProt P42336); assay: PI3K biochemical assay
Sequence of PI3K-α (P42336 whole entry): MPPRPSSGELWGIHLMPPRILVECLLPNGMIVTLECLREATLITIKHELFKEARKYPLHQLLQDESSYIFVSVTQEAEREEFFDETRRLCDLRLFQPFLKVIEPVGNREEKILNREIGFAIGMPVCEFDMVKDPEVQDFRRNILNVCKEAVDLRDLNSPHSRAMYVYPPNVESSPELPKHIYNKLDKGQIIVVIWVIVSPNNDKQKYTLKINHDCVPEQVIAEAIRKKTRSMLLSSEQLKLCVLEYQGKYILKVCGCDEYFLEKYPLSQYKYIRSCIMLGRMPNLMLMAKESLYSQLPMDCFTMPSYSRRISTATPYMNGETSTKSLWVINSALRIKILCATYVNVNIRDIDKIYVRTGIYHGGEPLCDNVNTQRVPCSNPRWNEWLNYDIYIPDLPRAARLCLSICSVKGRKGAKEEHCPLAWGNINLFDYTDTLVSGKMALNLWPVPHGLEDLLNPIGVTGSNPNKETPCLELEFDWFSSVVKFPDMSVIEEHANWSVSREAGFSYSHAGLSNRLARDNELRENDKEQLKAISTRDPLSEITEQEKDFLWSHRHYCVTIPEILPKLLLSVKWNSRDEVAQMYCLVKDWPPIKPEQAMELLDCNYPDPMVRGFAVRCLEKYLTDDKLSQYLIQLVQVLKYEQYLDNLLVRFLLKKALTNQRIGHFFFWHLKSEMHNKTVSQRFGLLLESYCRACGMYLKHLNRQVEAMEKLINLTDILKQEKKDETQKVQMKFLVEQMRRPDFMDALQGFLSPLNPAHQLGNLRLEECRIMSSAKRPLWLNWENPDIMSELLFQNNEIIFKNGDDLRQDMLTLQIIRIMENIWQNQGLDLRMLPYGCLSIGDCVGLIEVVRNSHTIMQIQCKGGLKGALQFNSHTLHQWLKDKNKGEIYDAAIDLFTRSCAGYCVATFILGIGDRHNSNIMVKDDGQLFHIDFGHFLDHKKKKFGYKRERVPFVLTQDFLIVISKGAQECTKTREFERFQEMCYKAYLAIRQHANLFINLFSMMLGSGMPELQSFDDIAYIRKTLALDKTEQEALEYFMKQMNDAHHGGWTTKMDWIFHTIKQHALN
Sequence of PI3K-α (P27986 whole entry partner): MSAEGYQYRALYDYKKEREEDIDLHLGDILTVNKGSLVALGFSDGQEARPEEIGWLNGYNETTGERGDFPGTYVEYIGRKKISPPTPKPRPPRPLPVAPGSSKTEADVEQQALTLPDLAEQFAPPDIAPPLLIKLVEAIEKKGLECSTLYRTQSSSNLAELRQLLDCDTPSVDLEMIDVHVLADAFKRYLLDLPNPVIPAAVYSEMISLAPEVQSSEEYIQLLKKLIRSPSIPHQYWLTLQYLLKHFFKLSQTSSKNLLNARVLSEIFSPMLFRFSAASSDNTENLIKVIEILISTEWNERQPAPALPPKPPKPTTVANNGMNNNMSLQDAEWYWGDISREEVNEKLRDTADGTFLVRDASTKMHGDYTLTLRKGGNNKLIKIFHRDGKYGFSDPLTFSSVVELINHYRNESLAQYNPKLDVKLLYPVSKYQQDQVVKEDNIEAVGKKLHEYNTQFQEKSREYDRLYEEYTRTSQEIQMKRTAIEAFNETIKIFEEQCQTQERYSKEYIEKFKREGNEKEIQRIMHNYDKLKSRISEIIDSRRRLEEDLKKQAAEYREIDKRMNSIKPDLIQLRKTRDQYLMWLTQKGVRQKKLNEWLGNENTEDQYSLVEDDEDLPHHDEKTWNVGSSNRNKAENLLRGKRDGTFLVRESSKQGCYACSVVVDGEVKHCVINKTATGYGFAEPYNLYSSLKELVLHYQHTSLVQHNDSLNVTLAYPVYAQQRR

[2] = test system: p-PI3K, p-Akt, p-mTOR and p-GSK-3β in A549 cells; assay: Western blotting, PI3K/Akt/mTOR pathway; assay type: cell-based, human; conditions: 1, 3, or 6 μM, western blot, dose-dependent
CCRF-CEM = assay: NCI in vitro five dose anticancer assay; assay type: cell-based, human
HCT-116 = assay: NCI in vitro five dose anticancer assay; assay type: cell-based, human
NCI-H322M = assay: NCI in vitro five dose anticancer assay; assay type: cell-based, human
MOLT-4 = assay: NCI in vitro five dose anticancer assay; assay type: cell-based, human
HOP-92 = assay: NCI in vitro five dose anticancer assay; assay type: cell-based, human
OVCAR-5 = assay: NCI in vitro five dose anticancer assay; assay type: cell-based, human
786–0 = assay: NCI in vitro five dose anticancer assay; assay type: cell-based, human
KM12 = assay: NCI in vitro five dose anticancer assay; assay type: cell-based, human
NCI-H226 = assay: NCI in vitro five dose anticancer assay; assay type: cell-based, human
PC-3 = assay: NCI in vitro five dose anticancer assay; assay type: cell-based, human
T-47D = assay: NCI in vitro five dose anticancer assay; assay type: cell-based, human
SNB-19 = assay: NCI in vitro five dose anticancer assay; assay type: cell-based, human
[3] = test system: Bax and cleaved caspases (3, 8, and 9) in K-562 cells; assay: Western blotting, apoptosis markers; assay type: cell-based, human; conditions: 24 h, 1, 3 and 6 μM, western blot; for levels of Bax / levels of cleaved caspase 3 / levels of cleaved caspase 9: dose-dependent
SF-295 = assay: NCI in vitro five dose anticancer assay; assay type: cell-based, human
MCF7 = assay: NCI in vitro five dose anticancer assay; assay type: cell-based, human
SW-620 = assay: NCI in vitro five dose anticancer assay; assay type: cell-based, human
SNB-75 = assay: NCI in vitro five dose anticancer assay; assay type: cell-based, human
OVCAR-4 = assay: NCI in vitro five dose anticancer assay; assay type: cell-based, human
RPMI-8226 = assay: NCI in vitro five dose anticancer assay; assay type: cell-based, human
OVCAR-3 = assay: NCI in vitro five dose anticancer assay; assay type: cell-based, human
[4] = test system: chronic myeloid leukemia K-562; assay: Trypan blue exclusion cytotoxicity assay
[5] = read-out: K-562 (IC50 μM), trypan blue exclusion, 24 h, mean ± SD
[6] = Non-small cell lung cancer, five dose assay
[7] = Ovarian cancer, five dose assay

- IC50 (PI3K-α): 271 nM
Compound: Cc1ccc(-c2cc(C(=O)NN=C(/C=C\c3ccc(Cl)cc3)c3ccc(N)cc3)c3ccccc3n2)cc1 [Compound 9j, N’-((Z)-1-(4-Aminophenyl)-3-(4-chlorophenyl)allylidene)-2-(4-methylphenyl)quinoline-4-carbohydrazide]
- GI50 (HCT-15; Homo sapiens): 3.33 µM
- GI50 (EKVX; Homo sapiens): 3.99 µM
- GI50 (ACHN; Homo sapiens): 4.19 µM
- levels of phosphorylated Akt (at Ser473) [1]: decreases
- levels of phosphorylated GSK-3β [1]: decreases
- levels of phosphorylated PI3K (at Tyr458) [1]: decreases
- levels of phosphorylated mTOR (at Ser2448) [1]: decreases
- GI50 (SK-OV-3; Homo sapiens): 4.94 µM
- GI50 (U251; Homo sapiens, U-251): 4.51 µM
- GI50 (NCI-H23; Homo sapiens): 5.02 µM
- GI50 (HT29; Homo sapiens, HT-29): 3.35 µM
- GI50 (SK-MEL-2; Homo sapiens): 3.81 µM
- inhibition at 10 µM (NCI 60 cell lines; Homo sapiens, 60 cell, read-out: mean growth inhibition): 74%
- GI50 (K-562; Homo sapiens, K562): 3.09 µM
- levels of phosphorylated Akt (at Ser473) [2]: decreases
- levels of phosphorylated GSK-3β [2]: decreases
- levels of phosphorylated PI3K (at Tyr458) [2]: decreases
- levels of phosphorylated mTOR (at Ser2448) [2]: decreases
- GI50 (CCRF-CEM; Homo sapiens): 4.53 µM
- GI50 (HCT-116; Homo sapiens): 3.18 µM
- GI50 (NCI-H322M; Homo sapiens): 4.73 µM
- GI50 (MOLT-4; Homo sapiens): 3.23 µM
- GI50 (HOP-92; Homo sapiens): 4.1 µM
- GI50 (OVCAR-5; Homo sapiens): 8.43 µM
- GI50 (786–0; Homo sapiens, 786-0): 4.22 µM
- GI50 (KM12; Homo sapiens): 3.46 µM
- GI50 (NCI-H226; Homo sapiens): 6.47 µM
- GI50 (PC-3; Homo sapiens): 3.4 µM
- GI50 (T-47D; Homo sapiens, T47D): 2.73 µM
- GI50 (SNB-19; Homo sapiens): 6.51 µM
- levels of cleaved caspase 8 [3]: not change
- levels of Bax [3]: increased
- levels of cleaved caspase 3 [3]: increased
- levels of cleaved caspase 9 [3]: increased
- GI50 (SF-295; Homo sapiens): 3.13 µM
- GI50 (MCF7; Homo sapiens): 2.53 µM
- GI50 (SW-620; Homo sapiens): 4.24 µM
- GI50 (SNB-75; Homo sapiens): 1.41 µM
- GI50 (OVCAR-4; Homo sapiens): 4.71 µM
- GI50 (RPMI-8226; Homo sapiens): 4.1 µM
- GI50 (OVCAR-3; Homo sapiens): 2.98 µM
- IC50 ([4]; Homo sapiens, K562, 24 h, read-out: K-562 (IC50 μM), trypan blue exclusion, mean ± SD): 2.7 µM
- IC50 [4, 5]: 2.67 ± 0.27 µM

- IC50 (PI3K-α; read-out: IC50 (nM) PI3K-α, ADP-Glo, ATP 10 μM): 248 nM
Compound: COc1ccc(-c2cc(C(=O)NN=C(/C=C\c3ccc(Cl)cc3)c3ccc(N)cc3)c3ccccc3n2)cc1 [Compound 9i, N’-((Z)-1-(4-Aminophenyl)-3-(4-chlorophenyl)allylidene)-2-(4-methoxphenyl)quinoline-4-carbohydrazide]
- GI50 (HCT-15; Colon cancer, five dose assay): 1.03 µM
- GI50 (EKVX; [6]): 3.78 µM
- GI50 (ACHN; Renal cancer, five dose assay): 1.47 µM
- levels of phosphorylated Akt (at Ser473) [1]: decreases
- levels of phosphorylated GSK-3β [1]: decreases
- levels of phosphorylated PI3K (at Tyr458) [1]: decreases
- levels of phosphorylated mTOR (at Ser2448) [1]: decreases
- GI50 (SK-OV-3; [7]): 3.32 µM
- GI50 (U251; CNS cancer, U251, five dose assay): 2.18 µM
- GI50 (NCI-H23; [6]): 3.14 µM
- GI50 (HT29; Colon cancer, HT29, five dose assay): 1.13 µM
- GI50 (SK-MEL-2; Melanoma, five dose assay): 2.03 µM
- mean growth inhibition (NCI 60 cell lines; 10 μM single dose, mean over NCI 60 cell lines): 73.03%
- GI50 (K-562; Leukemia, K-562, five dose assay): 1.05 µM
- levels of phosphorylated Akt (at Ser473) [2]: decreases
- levels of phosphorylated GSK-3β [2]: decreases
- levels of phosphorylated PI3K (at Tyr458) [2]: decreases
- levels of phosphorylated mTOR (at Ser2448) [2]: decreases
- GI50 (CCRF-CEM; Leukemia, five dose assay): 5.84 µM
- GI50 (HCT-116; Colon cancer, five dose assay): 1.41 µM
- GI50 (NCI-H322M; [6]): 6 µM
- GI50 (MOLT-4; Leukemia, five dose assay): 3.3 µM
- GI50 (HOP-92; [6]): 1.92 µM
- GI50 (OVCAR-5; [7]): 5.51 µM
- GI50 (786–0; Renal cancer, 786–0, five dose assay): 1.84 µM
- GI50 (KM12; Colon cancer, five dose assay): 1.15 µM
- GI50 (NCI-H226; [6]): 7.54 µM
- GI50 (PC-3; Prostate cancer, five dose assay): 2.03 µM
- GI50 (T-47D; Breast cancer, T-47D, five dose assay): 2.7 µM
- GI50 (SNB-19; CNS cancer, five dose assay): 5.54 µM
- levels of cleaved caspase 8 [3]: not change
- levels of Bax [3]: increased
- levels of cleaved caspase 3 [3]: increased
- levels of cleaved caspase 9 [3]: increased
- GI50 (SF-295; CNS cancer, five dose assay): 0.54 µM
- GI50 (MCF7; Breast cancer, five dose assay): 0.442 µM
- GI50 (SW-620; Colon cancer, five dose assay): 1.24 µM
- GI50 (SNB-75; CNS cancer, five dose assay): 0.371 µM
- GI50 (OVCAR-4; [7]): 1.82 µM
- GI50 (RPMI-8226; Leukemia, five dose assay): 3.86 µM
- GI50 (OVCAR-3; [7]): 0.462 µM
- IC50 [4, 5]: 1.9 µM and 1.91 µM
